Values of other authors as cited in PubChem BioAssay AID1259409 (Chemical Carcinogenesis Research Information System (CCRIS), 2018).

Test system: rodent chemically induced tumor inhibition, incidence and multiplicity
Experiment: CCRIS tumor inhibitor studies
Settings: Dose [Inhibitor]: 0

For `O=c1oc2c(O)c(O)cc3c(=O)oc4c(O)c(O)cc1c4c23`, the “tumour outcome (control, treated, inhibition, significance)” value (Carcinogen: AZOXYMETHANE, 25843-45-2, 4000 PPM IN DIET BEGINNING PRIOR TO CARCINOGEN DOSE AND CONTINUING FOR DURATION OF STUDY (STUDY DURATION: 54 WK), Route [Inhibitor]: ORAL, Species: RAT, Strain/Sex: F344/MALE, Target Tissue: Type of Lesion: SMALL INTESTINE: ADENOCARCINOMA, Dose [Carcinogen]: 15 MG/KG 1/WK FOR 2 WK, Promoter: NONE USED) is listed as 50%, 36%, 28%, not calculated, the “tumour outcome (control, treated, inhibition, significance)” value (Carcinogen: AZOXYMETHANE, 25843-45-2, 4000 PPM IN DIET BEGINNING PRIOR TO CARCINOGEN DOSE AND CONTINUING FOR DURATION OF STUDY (STUDY DURATION: 54 WK), Route [Inhibitor]: ORAL, Species: RAT, Strain/Sex: F344/MALE, Target Tissue: Type of Lesion: SMALL INTESTINE: ADENOMA, Dose [Carcinogen]: 15 MG/KG 1/WK FOR 2 WK, Promoter: NONE USED) is listed as 3%, 0%, 100%, not calculated and the “tumour outcome (control, treated, inhibition, significance)” value (Carcinogen: AZOXYMETHANE, 25843-45-2, 4000 PPM IN DIET FOR 56 WK BEGINNING 2 WK PRIOR TO CARCINOGEN TREATMENT (STUDY DURATION: 56 WK), Route [Inhibitor]: ORAL, Species: RAT, Strain/Sex: F344/MALE, Target Tissue: Type of Lesion: COLON (DISTAL): TUMOR, Dose [Carcinogen]: 15 MG/KG 1/WK FOR 2 WK, Promoter: NONE USED) is listed as 47%, 47%, 0%, not significant. For the same compound, the “tumour outcome (control, treated, inhibition, significance)” value (Carcinogen: AZOXYMETHANE, 25843-45-2, 4000 PPM IN DIET FOR 56 WK BEGINNING 2 WK PRIOR TO CARCINOGEN TREATMENT (STUDY DURATION: 56 WK), Route [Inhibitor]: ORAL, Species: RAT, Strain/Sex: F344/MALE, Target Tissue: Type of Lesion: COLON (PROXIMAL): TUMOR, Dose [Carcinogen]: 15 MG/KG 1/WK FOR 2 WK, Promoter: NONE) was 39%, 44%, -13%, not significant, the “tumour outcome (control, treated, inhibition, significance)” value (Carcinogen: AZOXYMETHANE, 25843-45-2, 8000 PPM IN DIET BEGINNING PRIOR TO CARCINOGEN DOSE AND CONTINUING FOR DURATION OF STUDY (STUDY DURATION: 54 WK), Route [Inhibitor]: ORAL, Species: RAT, Strain/Sex: F344/MALE, Target Tissue: Type of Lesion: COLON: ADENOCARCINOMA, Dose [Carcinogen]: 15 MG/KG 1/WK FOR 2 WK, Promoter: NONE USED) was 72%, 64%, 11%, not calculated and the “tumour outcome (control, treated, inhibition, significance)” value (Carcinogen: AZOXYMETHANE, 25843-45-2, 8000 PPM IN DIET BEGINNING PRIOR TO CARCINOGEN DOSE AND CONTINUING FOR DURATION OF STUDY (STUDY DURATION: 54 WK), Route [Inhibitor]: ORAL, Species: RAT, Strain/Sex: F344/MALE, Target Tissue: Type of Lesion: COLON: ADENOMA, Dose [Carcinogen]: 15 MG/KG 1/WK FOR 2 WK, Promoter: NONE USED) was 14%, 3%, 76%, not calculated. The “tumour outcome (control, treated, inhibition, significance)” value (Carcinogen: AZOXYMETHANE, 25843-45-2, 8000 PPM IN DIET BEGINNING PRIOR TO CARCINOGEN DOSE AND CONTINUING FOR DURATION OF STUDY (STUDY DURATION: 54 WK), Route [Inhibitor]: ORAL, Species: RAT, Strain/Sex: F344/MALE, Target Tissue: Type of Lesion: SMALL INTESTINE: ADENOCARCINOMA, Dose [Carcinogen]: 15 MG/KG 1/WK FOR 2 WK, Promoter: NONE USED) was 50%, 28%, 44%, not calculated, the “tumour outcome (control, treated, inhibition, significance)” value (Carcinogen: AZOXYMETHANE, 25843-45-2, 8000 PPM IN DIET BEGINNING PRIOR TO CARCINOGEN DOSE AND CONTINUING FOR DURATION OF STUDY (STUDY DURATION: 54 WK), Route [Inhibitor]: ORAL, Species: RAT, Strain/Sex: F344/MALE, Target Tissue: Type of Lesion: SMALL INTESTINE: ADENOMA, Dose [Carcinogen]: 15 MG/KG 1/WK FOR 2 WK, Promoter: NONE USED) was 3%, 0%, 100%, not calculated and the “tumour outcome (control, treated, inhibition, significance)” value (Carcinogen: AZOXYMETHANE, 25843-45-2, 8000 PPM IN DIET FOR 56 WK BEGINNING 2 WK PRIOR TO CARCINOGEN TREATMENT (STUDY DURATION: 56 WK), Route [Inhibitor]: ORAL, Species: RAT, Strain/Sex: F344/MALE, Target Tissue: Type of Lesion: COLON(DISTAL): TUMOR, Dose [Carcinogen]: 15 MG/KG 1/WK FOR 2 WK, Promoter: NONE USED) was 47%, 47%, 0%, not significant. For the same compound, the “tumour outcome (control, treated, inhibition, significance)” value (Carcinogen: AZOXYMETHANE, 25843-45-2, 8000 PPM IN DIET FOR 56 WK BEGINNING 2 WK PRIOR TO CARCINOGEN TREATMENT (STUDY DURATION: 56 WK), Route [Inhibitor]: ORAL, Species: RAT, Strain/Sex: F344/MALE, Target Tissue: Type of Lesion: COLON(PROXIMAL): TUMOR, Dose [Carcinogen]: 15 MG/KG 1/WK FOR 2 WK, Promoter: NONE USED) was 39%, 30%, 23%, not significant and the “tumour outcome (control, treated, inhibition, significance)” value (Carcinogen: BENZO[A]PYRENE, 50-32-8, 300 NMOL (TOTAL DOSE) APPLIED 10 MIN PRIOR TO CARCINOGEN DOSE INJECTED AS 1/7, 2/7, AND 4/7 OF THE TOTAL ON DAYS 1, 8, Route [Inhibitor]: INTRAPERITONEAL, Species: MOUSE, Strain/Sex: ICR/MALE, FEMALE, Target Tissue: Type of Lesion: LUNG: TUMOR, Dose [Carcinogen]: 450 NMOL (TOTAL DOSE) INJECTED IN DOSES OF 1/7, 2/7, AND 4/7 ON DAYS 1, 8, AND 15 OF LIFE, RESPECTIVELY, Promoter: NONE USED) was 74%, 75%, -1%, not significant.
